PubChem BioAssay AID1207 (NMMLSC, 2008)
Active and inactive are the calls of the source.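 Rule for the calls: active = score above 15, the percent gain in GFP-over-time curve area versus untreated cells across six hours; inactive = the rest.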 Peptide text beside a SMILES is read from it. * marks the point of attachment. Cbz = O=C(OCc1ccccc1)*

Test system: yeast RJD 2456 GFP degradation, flow cytometry
Assay: PubChem AID 1207
Conditions: at 150 µM; active compounds read high

Row | Structure (SMILES) | GFP remaining
1 | CC(=O)N1C(=O)C(=C2C=C(C)OC(C)=C2)c2ccccc21 | 0.705% (inactive)
2 | CC(C)C[C@@H](C=O)NC(=O)[C@H](CC(C)C)NC(=O)[C@H](CC(C)C)NC(=O)OCc1ccccc1 (Cbz-Leu-Leu-Leu-aldehyde) | 1.91% (inactive)
